# From US20040076974A1, “Liver necrosis predictive genes” (priority 2002, published 2004)
# Where “and” joins values, the source holds several entries; their conditions need not be identical. Equal entries are not always repeated. Where two headings read alike, the source gives them in different places.
# How the values were obtained:
# [1] = tested on: toxicologically relevant rat genes (rat CT array); conditions: rat, in vivo
# Sprague Dawley rats = conditions: rat, in vivo; for Score (histopathology liver necrosis severity score) / Liver Necrosis: ip
# Procedure, shortened: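 Toxicity calls (necrosis present or absent at 72 h) and histopathology scores were correlated with tissue gene expression from Crl:CD Sprague Dawley rats. Animals, usually 3 treated with compound by i.p. route and 3 given vehicle, were killed at 6, 24 or 72 h and tissues frozen immediately in liquid nitrogen.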
# Male Sprague-Dawley rats = type: in vivo, rat; conditions: intraperitoneal injection, 200 mg/kg
compound,measurement,setting,value
CC/C(=C(\c1ccccc1)c1ccc(OCCN(C)C)cc1)c1ccccc1 [tamoxifen],14-3-3 zeta expression,[1],1.06 and 1.114 and 1.024 and 1.069 and 1.078
same,60S ribosomal protein L6 expression,[1],1.136 and 1.258 and 1.391 (2×) and 1.1
same,Adenine nucleotide translocator 1 expression,[1],0.8038 and 0.8428 and 1.025 and 0.963 and 1.349
same,Alpha-1 microglobulin/bikunin precursor (Ambp) expression,[1],1.137 and 1.13 and 1.288 and 1.072 and 1.505
same,Alpha-tubulin expression,[1],0.9413 and 0.9605 and 0.9619 and 0.9049 and 1.355
same,Aquaporin-3 (AQP3) expression,[1],0.9813 and 0.7741 and 0.9894 and 0.9996 and 0.8864
same,Beta-actin expression,[1],0.7738 and 0.942 and 0.6998 and 1.204
same,"Beta-actin, sequence 2 expression",[1],0.7894 and 1.034 and 1.023 and 0.5893
same,"Beta-tubulin, class I expression",[1],0.7904 and 0.7769 and 1.118 and 1.041 and 1.416
same,Biliverdin reductase expression,[1],1.244 and 1.177 and 0.9432 and 0.9712
same,CDK108 expression,[1],0.7646 and 0.771 and 0.9296 and 1.067 and 0.6341
same,Calpactin I heavy chain expression,[1],1.24 and 0.9779 and 0.9969 and 0.9558 and 1.503
same,Calpain 2 expression,[1],1.074 and 1.028 and 1.069
same,Cathepsin B expression,[1],1.062 and 1.634 and 1.119 and 0.9643 and 1.263
same,"Cathepsin L, sequence 2 expression",[1],0.793 and 1.456 and 0.963 and 0.9594
same,Cathepsin S expression,[1],0.8837 and 1.721 and 1.401
same,Cyclin D1 expression,[1],0.9348 and 0.6137 and 1.116 and 1.1 and 0.745
same,Cystatin C expression,[1],0.7987 and 0.8206 and 1.149 and 1.058 and 1.138
same,Dynamin-1 (D100) expression,[1],0.974 and 0.8723 and 0.9822 and 1.024 and 0.9733
same,Elongation factor-1 alpha expression,[1],1.144 and 1.188 and 1.098 and 0.9078 and 1.206
same,Equilbrative nitrobenzylthioinosine-sensitive nucleoside transporter expression,[1],1.073 and 0.9454 and 0.9032 and 1.004 and 0.9505
same,F1-ATPase beta subunit expression,[1],0.7234 and 0.6975 and 0.9473 and 0.9602 and 1.189
same,"Gamma-actin, cytoplasmic expression",[1],0.982 and 0.9804 and 1.031 and 1.54
same,Glutathione S-transferase theta-1 expression,[1],0.8059 and 0.9415 and 0.8757 and 1.133
same,High affinity IgE receptor gamma chain (FcERIgamma) expression,[1],0.9724 and 1.018 and 1.021 and 1.327
same,Hypoxanthine-guanine phosphoribosyltransferase expression,[1],0.7468 and 0.8598 and 0.8651 and 0.806 and 0.9251
same,IgE binding protein expression,[1],1.306 and 1.678 and 1.071 and 1.114 and 1.302
same,JNK1 stress activated protein kinase expression,[1],0.666 and 0.9165 and 0.9272 and 0.962 and 0.7174
same,Melanoma-associated antigen ME491 expression,[1],1.025 and 1.238 and 1.062 and 1.098 and 1.559
same,Multidrug resistant protein-1 expression,[1],1.082 and 1.58 and 1.118 and 1.184 and 0.9501
same,Multidrug resistant protein-2 expression,[1],0.8809 and 1.298 and 1.165 and 1.156 and 0.7835
same,N-hydroxy-2-acetylaminofluorene sulfotransferase (ST1C1) expression,[1],1.02 and 0.9797 and 0.9522 and 1.016
same,"NADP-dependent isocitrate dehydrogenase, cytosolic expression",[1],0.865 and 1.545
same,NIPK expression,[1],1.08 and 1.011 and 0.9454 and 0.9651
same,Organic cation transporter 3 expression,[1],0.8883 and 1.096 and 1.263
same,Ornithine decarboxylase expression,[1],0.8334 and 1.039 and 1.055 and 1.097 and 1.469
same,Osteoactivin expression,[1],1.459 and 1.435 and 0.9157 and 0.9271 and 1.449
same,Paraoxonase 1 expression,[1],0.7398 and 0.6886 and 1.221 and 1.224
same,Phase-1 RCT-24 expression,[1],0.8968
same,Phase-1 RCT-39 expression,[1],1.47 and 0.9339 and 0.9947
same,Phase-1 RCT-43 expression,[1],0.9905 and 0.9704 and 0.9375
same,Phase-1 RCT-57 expression,[1],0.8991 and 0.6888
same,Phase-1 RCT-78 expression,[1],0.8505 and 0.8237
same,Phase-1 RCT-81 expression,[1],1.102
same,Phase-1 RCT-107 expression,[1],0.9169 and 0.6899
same,Phase-1 RCT-109 expression,[1],0.6916
same,Phase-1 RCT-117 expression,[1],0.9421 and 0.9667
same,Phase-1 RCT-138 expression,[1],0.9832
same,Phase-1 RCT-144 expression,[1],0.8629
same,Phase-1 RCT-146 expression,[1],0.9994
same,Phase-1 RCT-149 expression,[1],1.1 and 0.8836
same,Phase-1 RCT-154 expression,[1],0.8651 and 0.9418 and 0.9917
same,Phase-1 RCT-156 expression,[1],1.103
same,Phase-1 RCT-164 expression,[1],0.9378 and 0.8318 and 0.9484
same,Phase-1 RCT-173 expression,[1],0.7045 and 0.5898
same,Phase-1 RCT-174 expression,[1],0.7203 and 0.6816
same,Phase-1 RCT-179 expression,[1],1.2 and 0.9105 and 1.544
same,Phase-1 RCT-192 expression,[1],0.999
same,Phase-1 RCT-207 expression,[1],0.9742
same,Phase-1 RCT-211 expression,[1],0.8217 and 0.6431
same,Phase-1 RCT-213 expression,[1],0.8004
same,Phase-1 RCT-227 expression,[1],0.8538
same,Phase-1 RCT-260 expression,[1],0.974 and 0.93
same,Phase-1 RCT-290 expression,[1],0.5411 and 0.6526
same,Poly(ADP-ribose) polymerase expression,[1],0.8263 and 1.077 and 0.8901 and 0.8489 and 1.291
same,"Pyruvate kinase, muscle expression",[1],1.141 and 1.584 and 1.146 and 1.081 and 0.8598
same,Ribosomal protein L13A expression,[1],1.178 and 0.9908 and 0.8711
same,Ribosomal protein S8 expression,[1],1.069 and 1.043 and 1.983 and 1.441
same,Ribosomal protein S17 expression,[1],0.9563 and 0.9932 and 1.772 and 1.494
same,Stathmin expression,[1],0.8925 and 1.067 and 1.025 and 0.9726 and 0.8514
same,Thioredoxin-1 (Trx1) expression,[1],0.9876 and 1.146 and 1.089 and 0.8216 and 0.7283
same,Thymosin beta-10 expression,[1],0.8732 and 1.234 and 1.068 and 0.8379
same,Tissue plasminogen activator expression,[1],0.8347 and 0.7599 and 0.9719 and 1.009 and 1.011
same,Transitional endoplasmic reticulum ATPase expression,[1],0.9168 and 0.8359 and 1.015 and 0.9607 and 1.436
same,Ubiquitin conjugating enzyme (RAD 6 homologue) expression,[1],0.9338 and 0.984 and 0.8685 and 0.6936 and 1.384
same,Uncoupling protein 2 expression,[1],1.105 and 1.472 and 1.007 and 0.9206
same,Zinc finger protein expression,[1],0.8577 and 1.115 and 0.9673 and 0.8957 and 1.145
same,p55CDC expression,[1],1.198 and 1.343 and 1.163 and 1.148 and 0.9509
same,{Phase-1 RCT 98} expression,[1],0.8993 and 0.665 and 1.028 and 1.025
same,{Ribosomal protein 16} expression,[1],1.136 and 1.255 and 1.519
same,Score (histopathology liver necrosis severity score),"Sprague Dawley rats; Sprague Dawley, 50 mg/kg, 72 h",1
same,Score (histopathology liver necrosis severity score),"Sprague Dawley rats; Sprague Dawley, 200 mg/kg, 72 h",1
same,Liver Necrosis,Sprague Dawley rats; 50 mg/kg,no
same,Liver Necrosis,Sprague Dawley rats; 200 mg/kg,no
CN(C)[C@@H]1C(O)=C(C(N)=O)C(=O)[C@@]2(O)C(O)=C3C(=O)c4c(O)cccc4[C@@](C)(O)[C@H]3C[C@@H]12 [tetracycline],14-3-3 zeta expression,[1],0.7335
same,60S ribosomal protein L6 expression,[1],1.38
same,Adenine nucleotide translocator 1 expression,[1],1.332
same,Alpha-1 microglobulin/bikunin precursor (Ambp) expression,[1],1.73
same,"Alpha-2-macroglobulin, sequence 2 expression",[1],1.2
same,Alpha-2-microglobulin expression,[1],0.5107
same,Alpha-prothymosin expression,[1],1.454
same,Alpha-tubulin expression,[1],0.9701
same,Apolipoprotein AII expression,[1],0.2962
same,Apolipoprotein C1 expression,[1],1.791
same,Aquaporin-3 (AQP3) expression,[1],0.9307
same,Beta-actin expression,[1],0.78
same,"Beta-actin, sequence 2 expression",[1],0.5941
same,"Beta-tubulin, class I expression",[1],0.7321
same,Betaine homocysteine methyltransferase (BHMT) expression,[1],0.2575
same,Biliverdin reductase expression,[1],0.7455
same,CDK108 expression,[1],0.7153
same,Calpactin I heavy chain expression,[1],1.165
same,Calpain 2 expression,[1],1.216
same,"Cathepsin L, sequence 2 expression",[1],1.097
same,Cathepsin S expression,[1],1.473
same,Cholesterol esterase expression,[1],0.955
same,Cofilin expression,[1],1.77
same,Collagen type II expression,[1],1.355
same,Cyclin D1 expression,[1],1.265
same,Cystatin C expression,[1],1.57
same,Cytochrome P450 2A3 expression,[1],0.8495
same,Cytochrome P450 2C11 expression,[1],0.8002
same,Cytochrome P450 2C23 expression,[1],1.592
same,Dynamin-1 (D100) expression,[1],0.9613
same,Elongation factor-1 alpha expression,[1],1.049
same,Equilbrative nitrobenzylthioinosine-sensitive nucleoside transporter expression,[1],1.39
same,F1-ATPase beta subunit expression,[1],1.072
same,Fatty acid synthase expression,[1],0.837
same,"Gamma-actin, cytoplasmic expression",[1],1.057
same,Glutathione S-transferase theta-1 expression,[1],1.085
same,Glycine methyltransferase expression,[1],0.5811
same,Heme oxygenase expression,[1],1.421
same,High affinity IgE receptor gamma chain (FcERIgamma) expression,[1],1.193
same,Hypoxanthine-guanine phosphoribosyltransferase expression,[1],0.7473
same,IgE binding protein expression,[1],1.055
same,"Insulin-like growth factor I, exon 6 expression",[1],0.8256
same,JNK1 stress activated protein kinase expression,[1],0.6582
same,Melanoma-associated antigen ME491 expression,[1],1.77
same,Multidrug resistant protein-1 expression,[1],1.041
same,Multidrug resistant protein-2 expression,[1],0.8907
same,N-hydroxy-2-acetylaminofluorene sulfotransferase (ST1C1) expression,[1],1.531
same,"NADP-dependent isocitrate dehydrogenase, cytosolic expression",[1],1.608
same,NIPK expression,[1],0.7421
same,Nucleoside diphosphate kinase beta isoform expression,[1],1.032
same,Organic cation transporter 3 expression,[1],1.233
same,Ornithine decarboxylase expression,[1],0.9438
same,Osteoactivin expression,[1],1.112
same,Paraoxonase 1 expression,[1],2.144
same,Phase-1 RCT-24 expression,[1],0.8327
same,Phase-1 RCT-36 expression,[1],0.8652
same,Phase-1 RCT-43 expression,[1],1.003
same,Phase-1 RCT-58 expression,[1],1.737
same,Phase-1 RCT-109 expression,[1],0.5933
same,Phase-1 RCT-117 expression,[1],0.8447
same,Phase-1 RCT-146 expression,[1],0.9475
same,Phase-1 RCT-149 expression,[1],0.6559
same,Phase-1 RCT-173 expression,[1],0.5698
same,Phase-1 RCT-179 expression,[1],1.528
same,Phase-1 RCT-207 expression,[1],0.6995
same,Phase-1 RCT-211 expression,[1],0.6151
same,Phase-1 RCT-227 expression,[1],1.846
same,Phase-1 RCT-290 expression,[1],0.417
same,Poly(ADP-ribose) polymerase expression,[1],0.9896
same,Presenilin-1 expression,[1],2.114
same,"Protein tyrosine phosphatase, receptor type, D expression",[1],1.295
same,"Pyruvate kinase, muscle expression",[1],0.6785
same,Ribosomal protein L13A expression,[1],0.6452
same,Ribosomal protein S9 expression,[1],1.161
same,Ribosomal protein S17 expression,[1],1.358
same,Stathmin expression,[1],0.7954
same,"Stearyl-CoA desaturase, liver expression",[1],0.1376
same,Thioredoxin-1 (Trx1) expression,[1],0.7172
same,Thymosin beta-10 expression,[1],0.6534
same,Tissue plasminogen activator expression,[1],0.9708
same,Transitional endoplasmic reticulum ATPase expression,[1],1.373
same,Ubiquitin conjugating enzyme (RAD 6 homologue) expression,[1],1.177
same,Uncoupling protein 2 expression,[1],0.7333
same,Zinc finger protein expression,[1],1.116
same,"alpha-1,2-fucosyltransferase expression",[1],0.495
same,p55CDC expression,[1],0.9757
same,{Phase-1 RCT 98} expression,[1],1.16
same,{Ribosomal protein 16} expression,[1],1.197
same,toxicity at the high dose,Sprague Dawley rats,produced toxicity
same,toxicity at the low dose,Sprague Dawley rats,not at the low dose
same,Liver Necrosis,Sprague Dawley rats; 50 mg/kg,no
same,Score (histopathology liver necrosis severity score),Sprague Dawley rats; 50 mg/kg,1
same,Liver Necrosis,Sprague Dawley rats; 150 mg/kg,Yes
same,Score (histopathology liver necrosis severity score),Sprague Dawley rats; 150 mg/kg,2
CC(=N)S [thioacetamide],hepatocellular necrosis by histopathology,Male Sprague-Dawley rats,induced hepatocellular necrosis
